Consider twelve molecules from US9938257B2 (Sunshine Lake Pharma Co., Ltd., priority 2015, dated 2018).

One series deals with JAK1 (h) (Homo sapiens (Human), UniProt P23458). Kind of series: JAK1 (h) kinase activity assay. The series is classed as biochemical. As to the method: (§1) The above assay procedure can be used to determine the IC50 for inhibition and/or the inhibition constant, Ki. The IC50 is defined as the concentration of compound required to reduce the enzyme activity by 50% under the condition of the assay. The IC50 value is estimated by preparing a 10 point curve using a ½ log dilution series (for example, a typical curve may be prepared using the following compound concentrations: 3 μM, 1 μM, 0.3 μM, 0.1 μM, 0.03 μM, 0.01 μM, 0.003 μM, 0.001 μM, 0.0003 μM and 0 μM).
JAK1 (h) is incubated with 20 mM Tris/HCl pH 7.5, 0.2 mM EDTA, 500 μM GEEPLYWSFPAKKK, 10 mM MgAcetate and [γ-^33P-ATP] (specific activity approx. 500 cpm/pmol, concentration as required). The reaction is initiated by the addition of the MgATP mix. After incubation for 40 minutes at room temperature, the reaction is stopped by the addition of 3% phosphoric acid solution. 10 μL of the reaction is then spotted onto a P30 filtermat and washed three times for 5 minutes in 75 mM phosphoric acid and once in methanol prior to drying and scintillation counting.
(§2) The kinase assays described herein were performed at Millipore UK Ltd, Dundee Technology Park, Dundee DD2 1SW, UK.

Series [1] can be described thus: Compound stability in human liver microsomes. It is filed as in vitro ADME. The settings on record: pH 7.4; for half-life at 5 μM: human liver microsomes 0.5 mg protein/mL, compound 5 μM, NADPH 1.0 mM, 37° C., read-out: Human T1/2; for CLint scaled at 5 μM: human liver microsomes, in vivo CLint extrapolated. As to the method: (§3) Human or rat liver microsomes incubations were conducted in duplicate in polypropylene tubes. The typical incubation mixtures consisted of human or rat liver microsomes (0.5 mg protein/mL), compounds of interest (5 μM) and NADPH (1.0 mM) in a total volume of 200 μL potassium phosphate buffer (PBS, 100 mM, pH 7.4). Compounds were dissolved in DMSO and diluted with PBS such that the final concentration of DMSO was 0.05%. The enzymatic reactions were commenced with the addition of protein after a 3-min preincubation and incubated in a water bath open to the air at 37° C. Reactions were terminated at various time points (0, 5, 10, 15, 30, 60 min) by adding equal volume of ice-cold acetonitrile. The samples were stored at −80° C. until LC/MS/MS assays.
(§4) The concentrations of compounds in the incubation mixtures of human or rat liver microsomes were determined by a LC/MS/MS method. The ranges of the linearity in the concentration range were determined for each tested compounds.
(§5) A parallel incubation was performed using denatured microsomes as the negative control, and reactions were terminated at various time points (0, 15, 60 min) after incubation at 37° C.
(§6) Dextromethorphan (70 μM) was selected as the positive control, and reactions were terminated at various time points (0, 5, 10, 15, 30, 60 min) after incubation at 37° C. Both positive and negative control samples were included in each assay to ensure the integrity of the microsomal incubation system.
(§7) The concentrations of compounds in human or rat liver microsome incubations were plotted as a percentage of the relevant zero time point control for each reaction. The in vivo CLint were extrapolated (ref.: Naritomi, Y.; Terashita, S.; Kimura, S.; Suzuki, A.; Kagayama, A.; and Sugiyama, Y.; Prediction of human hepatic clearance from in vivo animal experiments and in vitro metabolic studies with liver microsomes from animals and humans. Drug Metab. Dispos., 2001, 29: 1316-1324).

Series [2] in a line: Compound stability in rat liver microsomes. It is filed as in vitro ADME. The settings on record: pH 7.4; for half-life at 5 μM: rat liver microsomes 0.5 mg protein/mL, compound 5 μM, NADPH 1.0 mM, 37° C., read-out: Rat T1/2; for CLint scaled at 5 μM: rat liver microsomes, in vivo CLint extrapolated. As to the method: as §3, §4, §5, §6, §7
Another series addresses Aurora-A (h) (Homo sapiens (Human), UniProt O14965). Put plainly: Aurora-A (h) kinase activity assay. The series is classed as biochemical. As to the method:
as §1
Aurora-A (h) is incubated with 8 mM MOPS pH 7.0, 0.2 mM EDTA, 200 μM LRRASLG (Kemptide), 10 mM MgAcetate and [γ-^33P-ATP] (specific activity approx. 500 cpm/pmol, concentration as required). The reaction is initiated by the addition of the MgATP mix. After incubation for 40 minutes at room temperature, the reaction is stopped by the addition of 3% phosphoric acid solution. 10 μL of the reaction is then spotted onto a P30 filtermat and washed three times for 5 minutes in 75 mM phosphoric acid and once in methanol prior to drying and scintillation counting.
as §2

Series [3] in a line: Pharmacokinetics after intravenous and oral administration in rats. It is filed as in vivo. The settings on record: for F: oral bioavailability, iv dose 1 mg/kg; for AUC(0-t) / half-life / Vd: rat, plasma; for Vd: read-out: Vss. As to the method:
The compounds disclosed herein are assessed in pharmacokinetic studies in mice, rats, dogs or monkeys. The compounds are administered as a water solution, 2% HPMC+1% TWEEN®80 in water solution, 5% DMSO+5% solutol in saline, 4% MC suspension or capsule. For the intravenous administration, the animals are generally given at 0.5, 1 or 2 mg/kg dose. For the oral (p.o.) dosing, mice and rats are generally given 0.5, 1, 5 or 10 mg/kg dose, and dogs and monkeys are generally given 10 mg/kg dose. The blood samples (0.3 mL) are drawn at 0.25, 0.5, 1.0, 2.0, 3.0, 4.0, 6.0, 8.0, 12 and 24 h time points or 0.083, 0.25, 0.5, 1.0, 2.0, 4.0, 6.0, 8.0 and 24 h time points and centrifuged at 3,000 or 4000 rpm for 2 to 10 min. The plasma solutions are collected, and stored at −20° C. or −70° C. until analyzed by LC/MS/MS as described above.

Aurora-A (h), sequence (O14965 whole entry): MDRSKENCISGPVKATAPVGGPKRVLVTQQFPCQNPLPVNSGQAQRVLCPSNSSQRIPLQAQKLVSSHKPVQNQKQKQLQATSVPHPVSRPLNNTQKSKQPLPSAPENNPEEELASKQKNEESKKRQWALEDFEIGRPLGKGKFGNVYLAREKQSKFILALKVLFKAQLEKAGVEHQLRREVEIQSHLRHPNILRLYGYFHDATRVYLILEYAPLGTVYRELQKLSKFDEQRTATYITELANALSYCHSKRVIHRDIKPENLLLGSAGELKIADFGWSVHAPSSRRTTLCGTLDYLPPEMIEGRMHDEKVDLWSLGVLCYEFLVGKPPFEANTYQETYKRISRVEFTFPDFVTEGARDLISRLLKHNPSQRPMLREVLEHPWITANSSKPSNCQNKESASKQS
JAK1 (h), sequence (P23458 whole entry): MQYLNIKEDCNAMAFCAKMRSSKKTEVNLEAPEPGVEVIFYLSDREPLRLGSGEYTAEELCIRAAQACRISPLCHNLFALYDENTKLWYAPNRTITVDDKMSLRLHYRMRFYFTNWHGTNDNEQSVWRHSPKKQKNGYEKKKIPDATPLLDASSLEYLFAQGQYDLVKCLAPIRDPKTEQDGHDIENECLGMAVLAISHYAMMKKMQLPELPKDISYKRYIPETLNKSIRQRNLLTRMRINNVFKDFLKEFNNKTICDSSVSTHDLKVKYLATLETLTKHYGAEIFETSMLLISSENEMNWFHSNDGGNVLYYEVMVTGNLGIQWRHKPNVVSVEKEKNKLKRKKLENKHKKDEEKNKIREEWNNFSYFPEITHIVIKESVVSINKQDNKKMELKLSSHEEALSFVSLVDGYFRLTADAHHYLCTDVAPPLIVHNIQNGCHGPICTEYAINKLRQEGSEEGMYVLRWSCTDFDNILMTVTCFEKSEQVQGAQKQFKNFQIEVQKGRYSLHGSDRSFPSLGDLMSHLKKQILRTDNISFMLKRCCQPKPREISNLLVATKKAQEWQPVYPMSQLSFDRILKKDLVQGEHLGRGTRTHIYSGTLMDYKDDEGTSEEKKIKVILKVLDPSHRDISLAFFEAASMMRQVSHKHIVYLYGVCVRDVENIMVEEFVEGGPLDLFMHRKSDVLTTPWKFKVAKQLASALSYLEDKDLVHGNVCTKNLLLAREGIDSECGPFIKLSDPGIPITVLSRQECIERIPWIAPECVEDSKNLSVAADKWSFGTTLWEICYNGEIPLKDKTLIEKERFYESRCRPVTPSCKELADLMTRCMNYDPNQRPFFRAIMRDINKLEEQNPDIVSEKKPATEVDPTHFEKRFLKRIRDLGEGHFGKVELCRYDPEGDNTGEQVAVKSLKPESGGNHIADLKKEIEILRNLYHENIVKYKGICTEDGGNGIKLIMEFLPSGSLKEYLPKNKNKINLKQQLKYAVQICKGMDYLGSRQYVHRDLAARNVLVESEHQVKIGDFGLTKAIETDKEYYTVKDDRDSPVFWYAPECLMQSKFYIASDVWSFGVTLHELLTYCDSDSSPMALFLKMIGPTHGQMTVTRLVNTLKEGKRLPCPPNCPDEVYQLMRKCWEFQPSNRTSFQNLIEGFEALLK

A word on the IC50: it is the concentration that inhibits the measured activity by half. The low end stands for higher potency, the high end for lower potency. As a reminder, the CLint scaled is the capacity of the preparation to metabolise the compound, expressed as a volume cleared per time. In turn, `Cn1cc(Nc2ncc(Cl)c(NC3CC4CN(CC(C)(C)O)CC4C3)n2)cn1` (centres unmarked) [Ex. 16, 1-(5-((5-chloro-2-((1-methyl-1H-pyrazol-4-yl)amino)pyrimidin-4-yl)amino)hexahydrocyclopenta[c]pyrrol-2(1H)-yl)-2-methylpropan-2-ol] came in with an IC50 on JAK1 (h) of 0.032 µM. The figures for the half-life at 5 μM in series [1] and in series [2] were 210 min and 6.28 min, respectively. The CLint scaled at 5 μM in series [1] was 8.27 mL/min/kg; in series [2] it was 395 mL/min/kg.

Take `Cn1cc(Nc2ncc(Cl)c(NC3CC4CN(S(=O)(=O)C5CC5)CC4C3)n2)cn1` (centres unmarked) [Ex. 13, 5-chloro-N^4-(2-(cyclopropylsulfonyl)octahydrocyclopenta[c]pyrrol-5-yl)-N^2-(1-methyl-1H-pyrazol-4-yl)pyrimidine-2,4-diamine]: on Aurora-A (h), the IC50 turned out to be 0.005 µM. Moreover, in series [1], the half-life at 5 μM was 33.1 min and the CLint scaled at 5 μM was 52.5 mL/min/kg. Besides, in series [2], the half-life at 5 μM was 5.48 min and the intrinsic clearance (CLint scaled) at 5 μM was 454 mL/min/kg.

For orientation: AUC(0-t) means the area under the concentration-time curve up to a stated or last time point. Regarding `Cn1cc(Nc2ncc(Cl)c(NC3CC4CN(C(=O)CC5CC5)CC4C3)n2)cn1` (centres unmarked) [Ex. 12, 1-(5-((5-chloro-2-((1-methyl-1H-pyrazol-4-yl)amino)pyrimidin-4-yl)amino)hexahydrocyclopenta[c]pyrrol-2(1H)-yl)-2-cyclopropylethanone], at JAK1 (h), half-maximal inhibition (IC50) required 0.012 µM. The molecule also showed an IC50 against Aurora-A (h) of 0.017 µM. Also, in series [3] (iv dosing, dose 1 mg/kg), the “Clearance (CL) after iv dosing” value was 60.2 mL/min/kg, the AUC(0-t) turned out to be 278 ng·h/mL, the half-life is 14.4 min and the Vd was found to be 0.99 L/kg. In addition, in series [3], the F was 30.5%.

At Aurora-A (h), `Cn1cc(Nc2ncc(Cl)c(NC3CC4CN(S(=O)(=O)CC5CC5)CC4C3)n2)cn1` (centres unmarked) [Ex. 17, 5-chloro-N^4-(2-((cyclopropylmethyl)sulfonyl)octahydrocyclopenta[c]pyrrol-5-yl)-N^2-(1-methyl-1H-pyrazol-4-yl)pyrimidine-2,4-diamine] showed an IC50 of 0.006 µM. Moreover, in series [1], the half-life at 5 μM came out at 35.7 min and the CLint scaled at 5 μM is 48.6 mL/min/kg. In series [3] (iv dosing, dose 1 mg/kg), the “Clearance (CL) after iv dosing” value is 54.2 mL/min/kg, the AUC(0-t) is 308 ng·h/mL, the half-life was 17.4 min and the Vd was 1.44 L/kg. This molecule also displayed a F in series [3] of 37.3%. Further, in series [2], the half-life at 5 μM came out at 7.15 min and the CLint scaled at 5 μM is 347 mL/min/kg.

As for `O=C(NC1CC1)N1CC2CC(Nc3nc(Nc4cnn(C5CCNC5)c4)ncc3Cl)CC2C1` (centres unmarked) [Ex. 40, 5-((5-chloro-2-((1-(pyrrolidin-3-yl)-1H-pyrazol-4-yl)amino)pyrimidin-4-yl)amino)-N-cyclopropylhexahydrocyclopenta[c]pyrrole-2(1H)-carboxamide], at Aurora-A (h), inhibition was half-maximal at 0.012 µM (IC50).

Take `Cn1cc(Nc2ncc(Cl)c(NC3CC4CN(C(=O)Nc5ccccc5)CC4C3)n2)cn1` (centres unmarked) [Ex. 28, 5-((5-chloro-2-((1-methyl-1H-pyrazol-4-yl)amino)pyrimidin-4-yl)amino)-N-phenylhexahydrocyclopenta[c]pyrrole-2(1H)-carboxamide]: in series [1], the half-life at 5 μM was 24.2 min and the CLint scaled at 5 μM is 72 mL/min/kg. Moreover, in series [3] (iv dosing, dose 1 mg/kg), the “Clearance (CL) after iv dosing” value was found to be 99.2 mL/min/kg, the area under the curve AUC(0-t) came to 168 ng·h/mL, the half-life was 22.8 min and the Vd was 1.99 L/kg. The molecule further gave a F in series [3] of 42.0%. Besides, in series [2], the half-life at 5 μM is 3.6 min and the CLint scaled at 5 μM is 690 mL/min/kg.

For `Cn1cc(Nc2ncc(Cl)c(NC3CCC4(CC3)CCN(CC(C)(C)O)CC4)n2)cn1` [Ex. 21, 1-(9-((5-chloro-2-((1-methyl-1H-pyrazol-4-yl)amino)pyrimidin-4-yl)amino)-3-azaspiro[5.5]undecan-3-yl)-2-methylpropan-2-ol], in series [1], the half-life at 5 μM amounted to 404 min and the CLint scaled at 5 μM was 4.3 mL/min/kg. Moreover, in series [3] (iv dosing, dose 1 mg/kg), the “Clearance (CL) after iv dosing” value came to 109 mL/min/kg, the exposure AUC(0-t) worked out at 147 ng·h/mL, the half-life is 87.6 min and the Vd was determined as 11.9 L/kg. In series [3], this molecule showed an F of 118.2%. Besides, in series [2], the half-life at 5 μM was 62.9 min and the CLint scaled at 5 μM is 39.5 mL/min/kg.

Turning to `Cn1cc(Nc2ncc(Cl)c(NC3CCC4(CC3)CCN(S(=O)(=O)C3CC3)CC4)n2)cn1`, in series [1], the half-life at 5 μM came out at 61 min and the CLint scaled at 5 μM is 28.5 mL/min/kg. In addition, in series [3] (iv dosing, dose 1 mg/kg), the Cl/F came out at 46.3 mL/min/kg, the AUC(0-t) was determined as 363 ng·h/mL, the half-life was 37.2 min and the Vd worked out at 2.07 L/kg. This molecule displayed a F in series [3] of 64.4%. In series [2], the half-life at 5 μM stood at 30 min and the CLint scaled at 5 μM was 82.7 mL/min/kg.

`CC(O)Cn1cc(Nc2ncc(Cl)c(NC3CC4CN(C(=O)NC5CC5)CC4C3)n2)cn1` (centres unmarked) [Ex. 41, 5-((5-chloro-2-((1-(2-hydroxypropyl)-1H-pyrazol-4-yl)amino)pyrimidin-4-yl)amino)-N-cyclopropylhexahydrocyclopenta[c]pyrrole-2(1H)-carboxamide]: the IC50 on Aurora-A (h) is 0.019 µM. In addition, in series [1], the half-life at 5 μM was found to be 73.5 min and the CLint scaled at 5 μM is 23.7 mL/min/kg. In series [2], the half-life at 5 μM is 43.7 min and the intrinsic metabolic clearance (CLint scaled) at 5 μM is 56.8 mL/min/kg.

Molecule `CC(C)(O)Cn1cc(Nc2ncc(Cl)c(NC3CC4CN(S(=O)(=O)NC5CC5)CC4C3)n2)cn1` (centres unmarked) [Ex. 43, 5-((5-chloro-2-((1-(2-hydroxy-2-methylpropyl)-1H-pyrazol-4-yl)amino)pyrimidin-4-yl)amino)-N-cyclopropylhexahydrocyclopenta[c]pyrrole-2(1H)-sulfonamide] gave an IC50 at Aurora-A (h) of 0.009 µM.

In turn, `Cn1cc(Nc2ncc(Cl)c(NC3CC4CN(S(=O)(=O)C(C)(C)C)CC4C3)n2)cn1` (centres unmarked) [Ex. 31, N^4-(2-(tert-butylsulfonyl)octahydrocyclopenta[c]pyrrol-5-yl)-5-chloro-N^2-(1-methyl-1H-pyrazol-4-yl)pyrimidine-2,4-diamine] yielded an IC50 against Aurora-A (h) of 0.05 µM.

Take `Cn1cc(Nc2ncc(Cl)c(NC3CC4CN(c5ccc(C#N)nn5)CC4C3)n2)cn1` (centres unmarked) [Ex. 30, 6-(5-((5-chloro-2-((1-methyl-1H-pyrazol-4-yl)amino)pyrimidin-4-yl)amino)hexahydrocyclopenta[c]pyrrol-2(1H)-yl)pyridazine-3-carbonitrile]: in series [1], the half-life at 5 μM came to 24.9 min and the CLint scaled at 5 μM was 69.8 mL/min/kg. In series [3] (iv dosing, dose 1 mg/kg), the “Clearance (CL) after iv dosing” value came out at 15.5 mL/min/kg, the AUC(0-t) was found to be 1140 ng·h/mL, the half-life was 36.6 min and the Vd is 0.71 L/kg. In addition, in series [3], the F came out at 268.4%. In series [2], the half-life at 5 μM amounted to 8.07 min and the CLint scaled at 5 μM is 308 mL/min/kg.
